For one assay, the system named is BALB/c mice. In words: IgE-induced passive systemic anaphylaxis (PSA). In kind it is in vivo. How it is done: Finally, to extend these observations to mast cell functions in vivo, the inventors tested the effects of C-13 on passive systemic (PSA) and cutaneous anaphylaxis (PCA) induced in BALB/c mice by administering DNP-specific IgE molecules followed by intravenous stimulation with DNP-KLH hapten. […] The intensity of systemic anaphylaxis was determined by measuring both the drop in body temperature and the increase in vascular permeability following antigen administration.
(§1) • 1) Chemical products and antibodies. A chemical bank of 3000 molecules (a varied subset) was acquired from ChemBridge, Inc. (San Diego, Calif.). Stocks of solutions of small molecules were prepared at a rate of 10 mM in DMSO (dimethylsulphoxide), except for C-13 (methyl 2-{5-[(3-benzyl-4-oxo-2-thioxo-1,3-thiazolidin-5-ylidene)methyl]-2-furyl}benzoate, ChemBridge ID No. 6197026) prepared in DMF (dimethylformamide). Unless specified otherwise, all the reagents were supplied by Sigma. […] The binding of G4G11 with Syk was assessed by adding the 9E10 monoclonal antibody conjugated with HRP detecting the amino acid sequence EQKLISEEDLN of human c-myc protein located at the C-terminal end of the scFv fragment. To generate Syk mutants, targeted mutagenesis was used on GST:Syk 6-242 protein and the binding of G4G11 with the mutants was assessed in the presence of 5 μM of C-13. • 3) Cells, culture conditions and functional tests. […]

A further assay has as its system PLC-γ1 and PLC-γ2. Briefly: Phosphorylation of PLC-γ1 and PLC-γ2 in mast cells. In kind it is cell-based.
Source text: To examine the functional similarities with G4G11, the inventors explored the biological effects of C-13 on mast cell activation. […] Similarly to the intrabody G4G11, C-13 inhibited the phosphorylation and FcεRI-induced kinase activity of Btk (FIG. 2A) and the phosphorylation of PLC-γ1 and PLC-γ2, the two PLC-γ isoforms expressed in mast cells (FIGS. 2A, C). PTK Lyn phosphorylates both Syk and Btk giving rise to the complete activation thereof and the subsequent phosphorylation of PLC-γ^18.
as §1, with “(dimethylformamide).” for “(dimethylformamide). Unless specified otherwise, all the reagents were supplied by Sigma.”

The text below walks through data of US9504676B2, “Molecules inhibiting a metabolic pathway involving the Syk protein tyrosine kinase and method for identifying said molecules” (CENTRE NATIONAL DE LA RECHERCHE SCIENTIFIQUE, priority 2008, dated 2016).

With `COC(=O)c1ccccc1-c1ccc(/C=C2/SC(=S)N(Cc3ccccc3)C2=O)o1` [Molecule C-13, methyl 2-{5-[(3-benzyl-4-oxo-2-thioxo-1,3-thiazolidin-5-ylidene)methyl]-2-furyl}benzoate], the “colour of ears and tail (Evans blue extravasation) in PSA” value with BALB/c mice (oral administration of 130 mg/kg) was “light blue colour”. Also, the “hypothermia (drop in body temperature) in PSA” value in the assay with BALB/c mice (single oral dose of 100 mg/kg) was “inhibited hypothermia”. Moreover, in the assay with PLC-γ1 and PLC-γ2, the “phosphorylation of PLC-γ1 and PLC-γ2” value is given as “inhibited”.
